Data on three molecules can be found in patent publication US20110218218A1, “Formulations Of Indanylamines And The Use Thereof As Local Anesthetics And As Medication For Chronic Pain” (BRIDGE PHARMA, INC., priority 2005, published 2011).

Structures are written as SMILES. In brackets after ≈: the same amount, converted by molar mass.

The target in series [1] is T1, human NaV1.3 channels (Homo sapiens, UniProt Q9NY46).
T1 construct: expressed in transfected cells; host or cells: HEK-293
The series is described as follows: NaV1.3 electrophysiology (patch clamp) in HEK-293 cells. The format is cell-based. Background: Patch clamp records ionic current or voltage across a cell membrane.

Series [2] can be described thus: Screening of excipients for their capability to dissolve LAC-34 free base at room temperature. Type of series: physicochemical. The settings on record: 22 °C, thermodynamic from solid. The procedure:
(§1) HPLC analytical methodology was developed, using LAC-34 free base at room temperature (21-23° C.). A liquid's ability to dissolve LAC-34 was screened by adding a known mass of LAC-34 to a known volume/mass of liquid. Saturation solubility was measured by adding an excess of drug substance and allowing the suspension to equilibrate while stirring for 2-3 days. Four solutions of different concentrations of LAC-34 (8.1 mcg/mL to 0.98 mg/mL) plus a blank were typically tested in triplicate. Excellent linearity of the recovery was obtained over […] in LAC-34 concentrations and the relative standard deviations of peak areas for all LAC-34 solutions were less than 0.5%.
Various excipients were tested for their capability to dissolve LAC-34, free base.

Series [3] is described as follows: Physical state of LAC-34 in solvents when tested at 4° C. The format is physicochemical. Here is the method:
When tested at 4° C., 20% LAC-34 in benzyl alcohol was a solution, 5% LAC-34 in propylene glycol was a gel, 5% LAC-34 in isopropyl myristate was a suspension, 5% LAC-34 in isopropyl palmitate was a solid, 5% LAC-34 in isopropyl alcohol was a suspension and cetyl alcohol was a solid (melting point=49.3° C.)

Series [4] in a line: Saturation solubility of LAC-34 free base in selected solvents (HPLC). Type of series: physicochemical. The settings on record: 22 °C, thermodynamic from solid. Here is the method:
as §1
The saturation solubility of LAC-34 was measured in capric/caprylic triglycerides (CCT), dimethylsulfoxide (DMSO), ethanol, isopropanol, isopropyl myristate (IPM), pentane, propylene glycol (PG), and water. CCT and IPM were selected for further work since they can function as emollients and oily vehicles in creams. DMSO is a solvent and a penetration enhancer. Ethanol and isopropanol are volatile solvents and rapid evaporation of a solvent like ethanol and isopropyl alcohol may be important for minimizing therapeutic onset time. Propylene glycol has multiple functions in dermal formulations, the most important of which are solubilization and penetration enhancement.
The analytical HPLC method described in Example 1 was used.
All of the solvents, with the exception of water, were able to dissolve large quantities of LAC-34. LAC-34, as the free base, was very soluble also in DMSO. Both IPM and CCT, which are semi-polar emollient oils, had also high solubilization capacity for LAC-34. Propylene glycol (PG), which has multiple actions for dermal drug delivery (see Table 1), was also able to solubilize significant quantities of LAC-34. […] After observing this phenomenon with ethanol, 0.125 g of isopropanol was added to 0.25 g of LAC-34. […] This was approximately 526 mg/mL.

Series [5] is described as follows: Solubility of LAC-34 in binary mixtures of solvent and water (anti-solvent). Type of series: physicochemical. The procedure: Due to the very high solubility of LAC-34 free base in numerous volatile solvents, it was determined to be necessary to find and add an anti-solvent in order to reach saturation of the solutions of LAC-34. The efficacy of water is an anti-solvent for LAC-34 free base was investigated in the present studies.

The nature of series [6]: Ternary solubility studies: PG/ethanol solutions titrated with water until cloudy. The format is physicochemical. The procedure:
Therefore, several solutions were made where PG would be saturated or almost saturated with LAC-34 (i.e., […]). A quantity of ethanol was added to act at the volatile solvent. Each solution was titrated with water until it became cloudy. As with other titrations with water, the LAC-34 appeared to come out of solution as a liquid (oil) rather than a solid.

Series [7] has as its system batrachotoxin-sensitive Na+ channel (site 2). The series is described as follows: [3H]batrachotoxin binding to Na+ channels (site 2). Further details: species or system rat.
For series [8], the target named is T2, human NaV1.5 channels (Homo sapiens, UniProt Q14524).
T2 construct: expressed in transfected cells; host or cells: HEK-293
T2 sequence (Q14524 whole entry): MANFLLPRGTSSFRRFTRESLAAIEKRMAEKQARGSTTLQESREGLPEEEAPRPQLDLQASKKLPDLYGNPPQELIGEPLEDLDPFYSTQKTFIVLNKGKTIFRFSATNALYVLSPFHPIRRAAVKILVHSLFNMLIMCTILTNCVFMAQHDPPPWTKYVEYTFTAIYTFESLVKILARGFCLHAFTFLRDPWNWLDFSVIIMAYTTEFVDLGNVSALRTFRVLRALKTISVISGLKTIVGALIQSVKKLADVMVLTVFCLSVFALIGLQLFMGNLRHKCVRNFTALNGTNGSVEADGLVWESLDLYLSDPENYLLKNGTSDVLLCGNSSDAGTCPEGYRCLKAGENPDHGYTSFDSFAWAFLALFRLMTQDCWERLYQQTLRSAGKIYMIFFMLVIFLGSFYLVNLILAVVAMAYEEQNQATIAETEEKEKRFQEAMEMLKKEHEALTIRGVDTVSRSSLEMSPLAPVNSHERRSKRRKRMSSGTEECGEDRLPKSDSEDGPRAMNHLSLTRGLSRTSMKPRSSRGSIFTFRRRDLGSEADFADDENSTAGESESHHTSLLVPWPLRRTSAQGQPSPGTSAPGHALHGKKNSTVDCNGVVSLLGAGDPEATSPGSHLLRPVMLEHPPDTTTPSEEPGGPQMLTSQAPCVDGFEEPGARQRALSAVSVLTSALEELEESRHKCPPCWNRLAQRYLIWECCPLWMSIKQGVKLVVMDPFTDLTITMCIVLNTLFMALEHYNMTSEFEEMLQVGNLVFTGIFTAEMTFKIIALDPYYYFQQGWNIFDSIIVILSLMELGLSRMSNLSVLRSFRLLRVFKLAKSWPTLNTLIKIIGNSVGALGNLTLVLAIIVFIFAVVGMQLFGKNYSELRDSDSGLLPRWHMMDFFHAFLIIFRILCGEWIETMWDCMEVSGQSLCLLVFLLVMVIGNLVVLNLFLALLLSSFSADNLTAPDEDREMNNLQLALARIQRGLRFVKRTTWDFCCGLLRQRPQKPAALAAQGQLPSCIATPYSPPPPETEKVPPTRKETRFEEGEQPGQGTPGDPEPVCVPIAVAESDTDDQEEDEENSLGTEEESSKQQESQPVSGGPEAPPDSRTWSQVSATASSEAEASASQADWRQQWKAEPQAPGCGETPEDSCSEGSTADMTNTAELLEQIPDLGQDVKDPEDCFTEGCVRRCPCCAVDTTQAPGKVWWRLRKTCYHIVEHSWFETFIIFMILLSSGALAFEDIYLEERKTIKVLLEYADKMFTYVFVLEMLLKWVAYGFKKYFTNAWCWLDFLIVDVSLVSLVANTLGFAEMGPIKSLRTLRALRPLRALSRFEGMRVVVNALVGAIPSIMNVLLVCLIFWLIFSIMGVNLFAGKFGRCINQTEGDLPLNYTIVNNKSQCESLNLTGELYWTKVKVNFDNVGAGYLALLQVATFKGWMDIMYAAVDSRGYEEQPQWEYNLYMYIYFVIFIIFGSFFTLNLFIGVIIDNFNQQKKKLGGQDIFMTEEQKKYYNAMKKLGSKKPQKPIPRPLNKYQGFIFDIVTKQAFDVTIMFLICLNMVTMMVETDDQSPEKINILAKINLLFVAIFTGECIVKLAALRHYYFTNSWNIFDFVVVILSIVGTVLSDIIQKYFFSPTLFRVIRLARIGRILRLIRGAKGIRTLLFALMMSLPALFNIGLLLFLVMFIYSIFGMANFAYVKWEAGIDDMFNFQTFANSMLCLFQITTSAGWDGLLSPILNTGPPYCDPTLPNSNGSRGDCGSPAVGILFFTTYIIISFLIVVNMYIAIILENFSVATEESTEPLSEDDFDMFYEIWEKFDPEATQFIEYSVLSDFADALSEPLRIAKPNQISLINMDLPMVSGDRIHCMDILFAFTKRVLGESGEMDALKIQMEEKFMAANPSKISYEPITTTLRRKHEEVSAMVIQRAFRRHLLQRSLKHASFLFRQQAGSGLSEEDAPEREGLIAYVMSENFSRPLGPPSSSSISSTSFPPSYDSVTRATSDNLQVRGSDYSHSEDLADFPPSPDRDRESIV
The series is described as follows: NaV1.5 electrophysiology (patch clamp) in HEK-293 cells. The format is cell-based.

In series [9] the test system is guinea pigs. The series is described as follows: Dermal anesthesia after dermal application, pinprick method. The format is in vivo, guinea pig. Particulars: for Average Anesthetic Score: 2.0 ml of 5.0% solution in DMSO/water, 30 min occluded, maximal score 6. Here is the method: The purpose of this study was to determine the efficacy of the free base and pharmaceutically acceptable salt forms of LAC-34 as dermal anesthetics, following dermal application of the compounds to guinea pigs. The Duration of Anesthesia is directly related to the Dermal Residence Times of the test articles.
Four groups of six male guinea pigs received a dose of 2.0 ml of a 5.0% solution of four test articles (LAC-34 base, LAC-34 mono-HCl salt, LAC-34 di-HCl salt and LAC-34 mesylate salt) that had been applied onto a two-inch square, 4-layer thick gauze pad on depilated dorsal skin of each guinea pig. Similarly, one group of guinea pigs received the vehicle, which consisted of DMSO/water and served as the control group. The gauze was occluded and the guinea pigs were wrapped for 30 min. Animals were assessed for initial pain reaction (anesthetic depth) at 15-minute intervals up to 3 hours and at 24 hours. An algesimeter, set at 10 g, was employed to assess the onset and depth of anesthesia using the pinprick method causing a twitch response or non-response. The “Average Anesthetic Score” was defined as number of probings not producing a dermal twitch response. Thus, a situation where there were no dermal twitch responses to six probings represent a maximal anesthetic effect and is denoted as an Average Anesthetic Score of 6. Duration of Anesthesia was in this study defined as the time from patch removal until the test scores have regressed to an average anesthetic score below 2.0. The Duration of Anesthesia in this type of experiments is directly related the duration of Dermal Residency for the test articles.

Series [10] can be described thus: Water solubility (spectrophotometric, HPLC). The format is physicochemical. Particulars: LAC-34 as free base. The procedure: (§2) Water solubility and dissociation constants were determined for the free base of LAC-34 using standard spectrophotometric, HPLC and potentiometric methods.
Series [11] in a line: Dissociation constant (pKa), potentiometric. The format is physicochemical. Particulars: LAC-34 as free base. The procedure:
as §2

T1 sequence (Q9NY46 whole entry): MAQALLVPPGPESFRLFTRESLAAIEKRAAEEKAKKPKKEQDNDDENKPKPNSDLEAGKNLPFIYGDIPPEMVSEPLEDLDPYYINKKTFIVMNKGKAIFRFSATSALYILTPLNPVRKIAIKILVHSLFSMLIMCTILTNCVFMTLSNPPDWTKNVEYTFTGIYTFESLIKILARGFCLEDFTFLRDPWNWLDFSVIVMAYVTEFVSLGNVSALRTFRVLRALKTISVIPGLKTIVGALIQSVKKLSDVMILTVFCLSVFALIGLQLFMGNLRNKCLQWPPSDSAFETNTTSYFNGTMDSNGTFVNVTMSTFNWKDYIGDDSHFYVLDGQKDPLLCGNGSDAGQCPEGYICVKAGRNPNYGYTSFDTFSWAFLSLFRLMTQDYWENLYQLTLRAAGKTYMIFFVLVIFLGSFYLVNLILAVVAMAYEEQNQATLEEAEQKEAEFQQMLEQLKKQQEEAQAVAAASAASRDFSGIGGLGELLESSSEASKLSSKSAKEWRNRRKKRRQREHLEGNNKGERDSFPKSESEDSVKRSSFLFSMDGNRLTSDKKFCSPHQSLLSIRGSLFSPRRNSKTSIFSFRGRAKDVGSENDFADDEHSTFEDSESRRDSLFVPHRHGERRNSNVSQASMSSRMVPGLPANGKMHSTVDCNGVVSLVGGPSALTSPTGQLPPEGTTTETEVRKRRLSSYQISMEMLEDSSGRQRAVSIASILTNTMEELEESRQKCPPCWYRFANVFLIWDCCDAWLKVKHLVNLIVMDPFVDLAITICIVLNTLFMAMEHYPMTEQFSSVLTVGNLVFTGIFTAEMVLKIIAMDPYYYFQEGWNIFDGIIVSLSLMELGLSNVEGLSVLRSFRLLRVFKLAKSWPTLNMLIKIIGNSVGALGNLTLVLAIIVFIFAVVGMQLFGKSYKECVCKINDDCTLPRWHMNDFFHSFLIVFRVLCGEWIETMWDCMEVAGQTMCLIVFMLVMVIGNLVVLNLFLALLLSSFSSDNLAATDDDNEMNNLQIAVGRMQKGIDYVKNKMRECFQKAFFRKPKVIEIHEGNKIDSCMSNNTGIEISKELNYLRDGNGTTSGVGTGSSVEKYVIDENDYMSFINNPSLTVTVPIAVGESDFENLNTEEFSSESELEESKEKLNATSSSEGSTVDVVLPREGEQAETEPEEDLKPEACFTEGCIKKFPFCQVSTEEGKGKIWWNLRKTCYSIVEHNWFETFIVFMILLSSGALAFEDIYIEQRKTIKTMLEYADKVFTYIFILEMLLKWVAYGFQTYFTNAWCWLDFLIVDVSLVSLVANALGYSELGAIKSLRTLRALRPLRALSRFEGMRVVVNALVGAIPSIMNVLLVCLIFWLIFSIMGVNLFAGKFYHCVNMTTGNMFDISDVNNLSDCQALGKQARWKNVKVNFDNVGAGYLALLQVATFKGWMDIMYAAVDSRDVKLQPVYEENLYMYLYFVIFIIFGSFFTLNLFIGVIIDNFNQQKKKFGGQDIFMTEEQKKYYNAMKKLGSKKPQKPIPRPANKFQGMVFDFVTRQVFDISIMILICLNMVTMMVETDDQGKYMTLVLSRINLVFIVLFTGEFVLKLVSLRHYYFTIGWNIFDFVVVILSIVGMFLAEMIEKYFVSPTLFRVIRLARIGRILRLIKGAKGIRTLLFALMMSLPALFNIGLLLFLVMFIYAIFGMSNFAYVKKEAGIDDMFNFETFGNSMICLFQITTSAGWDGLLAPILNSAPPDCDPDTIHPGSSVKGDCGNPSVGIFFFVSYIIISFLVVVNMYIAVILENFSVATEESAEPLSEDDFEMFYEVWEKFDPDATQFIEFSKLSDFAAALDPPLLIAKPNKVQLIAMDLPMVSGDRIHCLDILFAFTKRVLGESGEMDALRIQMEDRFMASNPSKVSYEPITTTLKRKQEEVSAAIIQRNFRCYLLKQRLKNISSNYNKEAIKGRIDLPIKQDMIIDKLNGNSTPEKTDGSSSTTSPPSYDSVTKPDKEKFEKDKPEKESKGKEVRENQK

Consider `CCN(CC)CC(=O)Nc1c(C)cccc1C` [Lidocaine, reference compound], for which, in [1] (HEK293, read-out: inhibition of NaV1.3 channels), the inhibition (usually the relative decrease from the control value, in per cent) at 2000 µM is 70%.

For the molecule `c1ccc(N(CCC2CCCCN2)C2Cc3ccccc3C2)cc1` (racemic) [LAC-34, 2-[2-(N-Phenyl-N-2-indanyl)aminoethyl]piperidine], the solubility (in general, the concentration that dissolves in the medium under given conditions) in [2] (oil or lipid, in isopropyl myristate) is more than 78 mg/mL; in series [2] (oil or lipid, in isopropyl palmitate) it was 50 to 100 mg/mL (≈ 156 to 312 mM); in [2] (oil or lipid, in mineral oil), less than 50 mg/mL; in series [2] (organic solvent or mixture, in benzyl alcohol), more than 100 mg/mL; in series [2] (organic solvent or mixture, in dibutyl adipate) it was more than 79 mg/mL; in [2] (organic solvent or mixture, in ethanol), more than 86 mg/mL. In addition, the solubility was more than 75 mg/mL in series [2] (organic solvent or mixture, in hexylene glycol); more than 79 mg/mL in [2] (organic solvent or mixture, in isopropyl alcohol); more than 78 mg/mL in series [2] (organic solvent or mixture, in propylene carbonate); more than 76 mg/mL in series [2] (organic solvent or mixture, in propylene glycol); 195 mg/mL (≈ 608 mM) in [4] (capric/caprylic triglycerides (CCT), oil or lipid, in capric/caprylic triglycerides (CCT)); 215 mg/mL (≈ 671 mM) in series [4] (dimethylsulfoxide (DMSO), organic solvent or mixture, in dimethylsulfoxide (DMSO)). Further, the solubility is more than 2000 mg/mL in series [4] (ethanol, organic solvent or mixture, in ethanol (never saturated)); 184 mg/mL (≈ 574 mM) in series [4] (isopropyl myristate (IPM), oil or lipid, in isopropyl myristate (IPM)); 150 mg/mL (≈ 468 mM) in series [4] (pentane, organic solvent or mixture, in pentane, value uncertain, pentane evaporates rapidly); 149 mg/mL (≈ 465 mM) in series [4] (propylene glycol (PG), organic solvent or mixture, in propylene glycol (PG)); 0.005 mg/mL (≈ 0.0156 mM) in series [4] (water, in water); not below 100 mg/mL in [5] (DMSO with 5% water, organic solvent or mixture, DMSO, 5% water, previous tests). Also, the solubility in series [5] (DMSO with 50% water, aqueous with cosolvent or surfactant or cyclodextrin, DMSO, 50% water, read-out: Solubility of LAC-34 in mixture of solvent and water) was 1.7 mg/mL (≈ 5.3 mM); in series [5] (DMSO with 90% water, aqueous with cosolvent or surfactant or cyclodextrin, DMSO, 90% water, read-out: Solubility of LAC-34 in mixture of solvent and water) it was 0.45 mg/mL (≈ 1.4 mM); in [5] (DMSO, 0% water, organic solvent or mixture), 215 mg/mL (≈ 671 mM); in series [5] (ethanol with 15% water, organic solvent or mixture, kinetic from dmso stock, ethanol, 15% water, titrated from an ethanol/LAC-34 solution with water) it was 63 mg/mL (≈ 197 mM); in series [5] (ethanol with 20% water, organic solvent or mixture, kinetic from dmso stock, ethanol, 20% water, titrated from an ethanol/LAC-34 solution with water) it was 33 mg/mL (≈ 103 mM); in series [5] (ethanol with 30% water, organic solvent or mixture, kinetic from dmso stock, ethanol, 30% water, titrated from an ethanol/LAC-34 solution with water) it was 7 mg/mL (≈ 21.8 mM). The solubility in series [5] (ethanol, 0% water, organic solvent or mixture) was more than 2000 mg/mL; in [5] (propylene glycol with 1% water, organic solvent or mixture, PG, 1% water), 139 mg/mL (≈ 434 mM); in series [5] (propylene glycol with 2.5% water, organic solvent or mixture, PG, 2.5% water) it was 104 mg/mL (≈ 325 mM); in [5] (propylene glycol with 5% water, organic solvent or mixture, PG, 5% water) it was 63 mg/mL (≈ 197 mM); in [5] (propylene glycol with 10% water, organic solvent or mixture, PG, 10% water), 29 mg/mL (≈ 90.5 mM); in series [5] (propylene glycol with 20% water, organic solvent or mixture, PG, 20% water), 8.7 mg/mL (≈ 27.1 mM). Besides, the solubility was determined as 0.37 mg/mL (≈ 1.15 mM) in [5] (propylene glycol with 50% water, aqueous with cosolvent or surfactant or cyclodextrin, PG, 50% water, read-out: Solubility of LAC-34 in mixture of solvent and water); 0.075 mg/mL (≈ 0.234 mM) in series [5] (propylene glycol with 75% water, aqueous with cosolvent or surfactant or cyclodextrin, PG, 75% water, read-out: Solubility of LAC-34 in mixture of solvent and water); 149 mg/mL (≈ 465 mM) in [5] (propylene glycol, organic solvent or mixture, PG, 0% water); 0.005 mg/mL (≈ 0.0156 mM) in [10]. The “Physical state at 4° C.” value in [3] (5% LAC-34 in isopropyl alcohol) is given as “suspension”; in [3] (5% LAC-34 in isopropyl myristate), “suspension”; in [3] (5% LAC-34 in isopropyl palmitate) it was “solid”; in [3] (5% LAC-34 in propylene glycol), “gel”; in series [3] (20% LAC-34 in benzyl alcohol), “solution”. Moreover, the “Saturation Concentration of LAC-34” value amounted to 7.6 % w/w in [6] (0.150 g LAC-34, 1.0 g PG, 0.5 g ethanol, 0.317 g water titrated); 5.4 % w/w in [6] (0.150 g LAC-34, 1.0 g PG, 1.0 g ethanol, 0.601 g water titrated); 3.3 % w/w in series [6] (0.200 g LAC-34, 1.0 g PG, 3.0 g ethanol, 1.880 g water titrated). Moreover, in series [7] (calculated from IC50 values), the “Potency relative to lidocaine, batrachotoxin-sensitive Na-channels” value is on record as “approximately 210 times”. The IC50 – broadly, the concentration at which inhibition is half-maximal – in series [7] (rat cerebral cortex, 10 nM ligand, 60 min/22° C., read-out: IC50, inhibition of [3H]batrachotoxin specific binding) came to 247 nM; in series [1] (HEK-293 cells, patch clamp), 4000 nM; in series [8], 600 nM. The “Potency relative to lidocaine, NaV1.3 channels” value in series [1] (calculated) is reported as “more than 200 times”. Moreover, in [8] (calculated), the “Potency relative to lidocaine, NaV1.5 channels” value is given as “about 500 times”. Besides, the “Average Anesthetic Score” value is 4.8 in [9] (15 min after patch removal); 4.8 in series [9] (30 min after patch removal); 4.4 in series [9] (60 min after patch removal); 3.3 in [9] (90 min after patch removal); 2.2 in series [9] (180 min after patch removal). In addition, in series [9] (highest Average Anesthetic Score after patch removal, 5.0% solution), the “Maximal Depth of Anesthesia” value is on record as 4.8. The “Duration of Anesthesia” value in series [9] (time from patch removal until average anesthetic score below 2.0, 5.0% solution) was 180 min. In addition, in [11], the pKa (commonly the pH at which an ionisable group is half protonated) was 8.09 ± 0.23.

Turning to `CCCCNc1ccc(C(=O)OCCN(C)C)cc1` [Tetracaine, reference compound], in series [10], the concentration in solution (solubility) came to 0.356 mg/mL (≈ 1.35 mM). In [11], this molecule had a pKa of 8.51 ± 0.12.
